For assay [1], the target named is T1, Excitatory amino acid transporter 3 (Homo sapiens, UniProt P43005).
T1 sequence (P43005 whole entry): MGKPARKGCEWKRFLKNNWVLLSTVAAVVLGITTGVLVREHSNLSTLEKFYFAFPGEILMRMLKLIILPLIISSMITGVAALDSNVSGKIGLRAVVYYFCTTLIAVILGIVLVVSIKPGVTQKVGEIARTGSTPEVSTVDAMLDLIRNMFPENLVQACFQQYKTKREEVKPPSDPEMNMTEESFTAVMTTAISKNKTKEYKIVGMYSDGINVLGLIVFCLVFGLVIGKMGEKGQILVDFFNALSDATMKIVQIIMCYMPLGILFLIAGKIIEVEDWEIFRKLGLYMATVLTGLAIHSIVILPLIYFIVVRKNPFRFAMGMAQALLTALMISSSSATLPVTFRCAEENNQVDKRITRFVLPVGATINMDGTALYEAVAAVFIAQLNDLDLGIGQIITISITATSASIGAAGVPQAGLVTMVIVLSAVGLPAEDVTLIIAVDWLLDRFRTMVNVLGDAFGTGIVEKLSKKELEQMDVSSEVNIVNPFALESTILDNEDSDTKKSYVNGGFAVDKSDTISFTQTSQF

Assay [2] deals with Excitatory amino acid transporter 1 (Homo sapiens, UniProt P43003).
Sequence of Excitatory amino acid transporter 1 (P43003 whole entry): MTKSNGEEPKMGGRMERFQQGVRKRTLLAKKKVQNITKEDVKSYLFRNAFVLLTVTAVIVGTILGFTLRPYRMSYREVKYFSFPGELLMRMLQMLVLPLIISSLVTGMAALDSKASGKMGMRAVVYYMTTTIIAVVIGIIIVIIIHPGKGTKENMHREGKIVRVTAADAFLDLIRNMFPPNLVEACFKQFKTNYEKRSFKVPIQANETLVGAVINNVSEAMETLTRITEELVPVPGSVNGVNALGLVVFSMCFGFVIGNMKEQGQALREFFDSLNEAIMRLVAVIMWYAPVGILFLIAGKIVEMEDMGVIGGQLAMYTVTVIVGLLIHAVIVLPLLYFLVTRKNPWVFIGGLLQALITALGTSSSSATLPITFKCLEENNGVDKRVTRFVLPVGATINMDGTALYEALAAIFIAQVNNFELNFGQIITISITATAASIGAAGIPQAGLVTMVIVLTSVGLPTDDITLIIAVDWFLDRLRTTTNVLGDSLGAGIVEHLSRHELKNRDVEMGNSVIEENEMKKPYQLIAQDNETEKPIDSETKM

As a reminder, the IC50 is the point on the concentration scale where inhibition reaches its midpoint. `Cc1cc(C(=O)NC[C@H](N)C(=O)O)ccc1-c1ccc(Cl)cc1` [3-[3-Methyl-4-(4-chlorophenyl)benzoylamino]alanine]: it took 1.45 µM to reach half-maximal inhibition in assay [1] (IC50).

Take `Cc1ccccc1-c1ccc(NC(=O)C[C@H](N)C(=O)O)cc1` [WAY-213394]: the IC50 turned out to be 1.97 µM in assay [2] and 6.56 µM in assay [1]. As to `N[C@@H](CC(=O)Nc1ccc2c(c1)Cc1cc(C(F)(F)F)ccc1-2)C(=O)O` [WAY-212922], the IC50 came to 3.43 µM in assay [2] and 1.84 µM in assay [1].
